# From patent US12492173B2, “Herbicidal substituted N-tetrazolyl aryl carboxamides” (Bayer Aktiengesellschaft, priority 2019, dated 2025)
# How the values were obtained:
# Assay type in all cases: in vivo
# [1] = system: Pharbitis purpurea; test: Pre-emergence herbicidal action, PHBPU
# Text: (§1) 1. Pre-Emergence Herbicidal Action Against Harmful Plants Seeds of monocotyledonous and dicotyledonous weed plants and crop plants are laid out in sandy loam soil in wood-fiber pots and covered with soil. The compounds of the invention, formulated in the form of wettable powders (WP) or as emulsion concentrates (EC), are then applied to the surface of the covering soil in the form of an aqueous suspension or emulsion at a water application rate equating to 600 to 800 l/ha, with addition of 0.2% wetting agent. After the treatment, the pots are placed in a greenhouse and kept under good growth conditions for the trial plants. The damage to the test plants is scored visually after a test period of 3 weeks by comparison with untreated controls (herbicidal activity in percent (%): 100% activity=the plants have died, 0% activity=like control plants). […] The tables below illustrate, in an exemplary manner, the […] herbicidal action of the compounds according to the invention, the herbicidal activity being stated in percent. [table] In the experiments that follow, herbicidal action of numerous inventive compounds and the known compounds that are structurally closest from D1 (WO 2012/028579 A1) and D2 (WO 2018/202535 A1) were compared under the above-specified conditions by the pre-emergence and post-emergence method. The example numbers given in the tables relate to the compounds disclosed in the respective documents. In addition to the compounds disclosed in D1 and D2, the following compounds V-1 to V-14 that are encompassed by D1 or D2 but are not compounds specified therein were used in the comparative experiments: • V-1: 2-(methylsulfanyl)-3-(methylsulfinyl)-N-(1-methyl-1H-tetrazol-5-yl)-4-(trifluoromethyl)benzamide • V-2: 2-(methylsulfanyl)-3-(methylsulfonyl)-N-(1-methyl-1H-tetrazol-5-yl)-4-(trifluoromethyl)benzamide • V-3: 2,3-bis(ethylsulfanyl)-N-(1-methyl-1H-tetrazol-5-yl)-4-(trifluoromethyl)benzamide • V-4: 2-chloro-3-(ethylsulfanyl)-N-(1-methyl-1H-tetrazol-5-yl)-4-(trifluoromethyl)benzamide • V-5: 2-chloro-4-iodo-3-(methylsulfanyl)-N-(1-methyl-1H-tetrazol-5-yl)benzamide • V-6: 2-chloro-4-iodo-3-(methylsulfinyl)-N-(1-methyl-1H-tetrazol-5-yl)benzamide • V-7: 2-chloro-4-iodo-3-(methylsulfonyl)-N-(1-methyl-1H-tetrazol-5-yl)benzamide • V-8: 2-bromo-3-(methylsulfanyl)-N-(1-methyl-1H-tetrazol-5-yl)-4-(trifluoromethyl)benzamide • V-9: 2-bromo-3-(methylsulfinyl)-N-(1-methyl-1H-tetrazol-5-yl)-4-(trifluoromethyl)benzamide • V-10: 2-bromo-3-(methylsulfonyl)-N-(1-methyl-1H-tetrazol-5-yl)-4-(trifluoromethyl)benzamide • V-11: 2-bromo-3-(ethylsulfanyl)-N-(1-methyl-1H-tetrazol-5-yl)-4-(trifluoromethyl)benzamide • V-12: 2-bromo-3-(ethylsulfinyl)-N-(1-methyl-1H-tetrazol-5-yl)-4-(trifluoromethyl)benzamide • V-13: 2-bromo-3-(ethylsulfonyl)-N-(1-methyl-1-1H-tetrazol-5-yl)-4-(trifluoromethyl)benzamide • V-14: 2-cyclopropyl-3-(ethylsulfanyl)-N-(1-methyl-1H-tetrazol-5-yl)-4-(trifluoromethyl)benzamide Herbicidal Pre-Emergence Action: […]
# [2] = system: Abutilon theophrasti; test: Pre-emergence herbicidal action, ABUTH; conditions: dosage 320 g/ha, scored visually after 3 weeks vs untreated controls (100% = plants have died)
# Method in brief: (§2)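 Pre-emergence soil spray over sandy loam-covered seeds; greenhouse 3 weeks; % visual damage (0% = control, 100% = dead).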
# [3] = system: Amaranthus retroflexus; test: Pre-emergence herbicidal action, AMARE; conditions: dosage 320 g/ha
# Method in brief: as §2
# [4] = system: Echinochloa crus-galli; test: Pre-emergence herbicidal action, ECHCG; conditions: dosage 320 g/ha
# Method in brief: as §2
# [5] = system: Matricaria inodora; test: Pre-emergence herbicidal action, MATIN; conditions: dosage 320 g/ha, scored visually after 3 weeks vs untreated controls (100% = plants have died)
# Method in brief: as §2
# [6] = system: Polygonum convolvulus; test: Pre-emergence herbicidal action, POLCO; conditions: dosage 320 g/ha, scored visually after 3 weeks vs untreated controls (100% = plants have died)
# Text: as §1
# [7] = system: Setaria viridis; test: Pre-emergence herbicidal action, SETVI; conditions: dosage 320 g/ha, scored visually after 3 weeks vs untreated controls (100% = plants have died)
# Text: as §1
# [8] = system: Stellaria media; test: Pre-emergence herbicidal action, STEME; conditions: dosage 320 g/ha
# Method in brief: as §2
# [9] = system: Veronica persica; test: Pre-emergence herbicidal action, VERPE; conditions: dosage 320 g/ha
# Method in brief: as §2
# [10] = system: Viola tricolor; test: Pre-emergence herbicidal action, VIOTR; conditions: dosage 320 g/ha, scored visually after 3 weeks vs untreated controls (100% = plants have died)
# Method in brief: as §2
# [11] = system: Amaranthus retroflexus; test: Post-emergence herbicidal action, AMARE; set-up: key: % herbicidal action vs untreated; 100 = plants died, 0 = like control
# Method in brief: (§3)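 Percent herbicidal effect was rated visually about 3 weeks after treatment, relative to untreated plants (0% = like control, 100% = dead). Compounds, formulated as WP or EC, went on as aqueous spray (600–800 l/ha, 0.2% wetting agent) to one-leaf-stage plants 2–3 weeks post-sowing in sandy loam.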
# [12] = system: Echinochloa crus-galli; test: Post-emergence herbicidal action, ECHCG; set-up: key: % herbicidal action vs untreated; 100 = plants died, 0 = like control
# Method in brief: as §3
# [13] = system: Pharbitis purpurea; test: Post-emergence herbicidal action, PHBPU
# Method in brief: as §3
# [14] = system: Stellaria media; test: Post-emergence herbicidal action, STEME; set-up: key: % herbicidal action vs untreated; 100 = plants died, 0 = like control
# Method in brief: as §3
# [15] = system: Viola tricolor; test: Post-emergence herbicidal action, VIOTR; set-up: key: % herbicidal action vs untreated; 100 = plants died, 0 = like control
# Method in brief: as §3
# [16] = system: Abutilon theophrasti; test: Post-emergence herbicidal action, ABUTH; set-up: key: % herbicidal action vs untreated; 100 = plants died, 0 = like control; conditions: Dosage 80 g/ha
# Method in brief: as §3
# [17] = system: Alopecurus myosuroides; test: Post-emergence herbicidal action, ALOMY; set-up: key: % herbicidal action vs untreated; 100 = plants died, 0 = like control; conditions: Dosage 80 g/ha
# Description: (§4) [table] 2. Post-Emergence Herbicidal Action Against Harmful Plants Seeds of monocotyledonous and dicotyledonous weed and crop plants are laid out in sandy loam soil in wood-fiber pots, covered with soil and cultivated in a greenhouse under good growth conditions. 2 to 3 weeks after sowing, the test plants are treated at the one-leaf stage. The compounds of the invention, formulated in the form of wettable powders (WP) or as emulsion concentrates (EC), are then sprayed onto the green parts of the plants in the form of an aqueous suspension or emulsion at a water application rate equating to 600 to 800 l/ha, with addition of 0.2% wetting agent. After the test plants have been left to stand in the greenhouse under optimal growth conditions for about 3 weeks, the action of the preparations is assessed visually in comparison to untreated controls (herbicidal action in percent (%): 100% activity=the plants have died, 0% activity=like control plants). […] The tables below illustrate, in an exemplary manner, the post-emergence herbicidal action of the compounds according to the invention, the herbicidal activity being stated in percent. In the experiments that follow, herbicidal action of numerous inventive compounds and the known compounds that are structurally closest from D1 (WO 2012/028579 A1) and D2 (WO 2018/202535 A1) were compared under the above-specified conditions by the pre-emergence and post-emergence method. The example numbers given in the tables relate to the compounds disclosed in the respective documents. In addition to the compounds disclosed in D1 and D2, the following compounds V-1 to V-14 that are encompassed by D1 or D2 but are not compounds specified therein were used in the comparative experiments: • V-1: 2-(methylsulfanyl)-3-(methylsulfinyl)-N-(1-methyl-1H-tetrazol-5-yl)-4-(trifluoromethyl)benzamide • V-2: 2-(methylsulfanyl)-3-(methylsulfonyl)-N-(1-methyl-1H-tetrazol-5-yl)-4-(trifluoromethyl)benzamide • V-3: 2,3-bis(ethylsulfanyl)-N-(1-methyl-1H-tetrazol-5-yl)-4-(trifluoromethyl)benzamide • V-4: 2-chloro-3-(ethylsulfanyl)-N-(1-methyl-1H-tetrazol-5-yl)-4-(trifluoromethyl)benzamide • V-5: 2-chloro-4-iodo-3-(methylsulfanyl)-N-(1-methyl-1H-tetrazol-5-yl)benzamide • V-6: 2-chloro-4-iodo-3-(methylsulfinyl)-N-(1-methyl-1H-tetrazol-5-yl)benzamide • V-7: 2-chloro-4-iodo-3-(methylsulfonyl)-N-(1-methyl-1H-tetrazol-5-yl)benzamide • V-8: 2-bromo-3-(methylsulfanyl)-N-(1-methyl-1H-tetrazol-5-yl)-4-(trifluoromethyl)benzamide • V-9: 2-bromo-3-(methylsulfinyl)-N-(1-methyl-1H-tetrazol-5-yl)-4-(trifluoromethyl)benzamide • V-10: 2-bromo-3-(methylsulfonyl)-N-(1-methyl-1H-tetrazol-5-yl)-4-(trifluoromethyl)benzamide • V-11: 2-bromo-3-(ethylsulfanyl)-N-(1-methyl-1H-tetrazol-5-yl)-4-(trifluoromethyl)benzamide • V-12: 2-bromo-3-(ethylsulfinyl)-N-(1-methyl-1H-tetrazol-5-yl)-4-(trifluoromethyl)benzamide • V-13: 2-bromo-3-(ethylsulfonyl)-N-(1-methyl-1-1H-tetrazol-5-yl)-4-(trifluoromethyl)benzamide • V-14: 2-cyclopropyl-3-(ethylsulfanyl)-N-(1-methyl-1H-tetrazol-5-yl)-4-(trifluoromethyl)benzamide Herbicidal Pre-Emergence Action: […]
# [18] = system: Cyperus esculentus; test: Post-emergence herbicidal action, CYPES; set-up: key: % herbicidal action vs untreated; 100 = plants died, 0 = like control; conditions: Dosage 80 g/ha
# Description: as §4
# [19] = system: Matricaria inodora; test: Post-emergence herbicidal action, MATIN; set-up: key: % herbicidal action vs untreated; 100 = plants died, 0 = like control; conditions: Dosage 80 g/ha
# Method in brief: as §3
# [20] = system: Setaria viridis; test: Post-emergence herbicidal action, SETVI; set-up: key: % herbicidal action vs untreated; 100 = plants died, 0 = like control; conditions: Dosage 80 g/ha
# Method in brief: as §3
# [21] = system: Veronica persica; test: Post-emergence herbicidal action, VERPE; set-up: key: % herbicidal action vs untreated; 100 = plants died, 0 = like control; conditions: Dosage 80 g/ha
# Method in brief: as §3
# [22] = scored visually after 3 weeks vs untreated controls (100% = plants have died)
compound,measurement,setting,value
CCSCc1c(C(F)(F)F)ccc(C(=O)Nc2nnnn2C)c1C1CC1 [Example 1-517],Herbicidal action against PHBPU,"[1]; comparative experiment, 20 g of a.i./ha",60
Cn1nnnc1NC(=O)c1ccc(S(C)(=O)=O)c(CS(C)(=O)=O)c1Cl [Example 1-280],herbicidal activity ABUTH,[2],90%
same,herbicidal activity AMARE,[3]; [22],100%
same,herbicidal activity ECHCG,[4]; [22],100%
same,herbicidal activity MATIN,[5],90%
same,herbicidal activity PHBPU,"[1]; dosage 320 g/ha, scored visually after 3 weeks vs untreated controls (100% = plants have died)",80%
same,herbicidal activity POLCO,[6],80%
same,herbicidal activity SETVI,[7],80%
same,herbicidal activity STEME,[8]; [22],90%
same,herbicidal activity VERPE,[9]; [22],100%
same,herbicidal activity VIOTR,[10],90%
same,Herbicidal action against AMARE,"[11]; post-emergence, dosage 80 g/ha",90
same,Herbicidal action against ECHCG,"[12]; post-emergence, dosage 80 g/ha",90
same,Herbicidal action against PHBPU,"[13]; post-emergence, dosage 80 g/ha",90
same,Herbicidal action against STEME,"[14]; post-emergence, dosage 80 g/ha",100
same,Herbicidal action against VIOTR,"[15]; post-emergence, dosage 80 g/ha",90
CCn1nnnc1NC(=O)c1ccc(S(C)(=O)=O)c(CSC)c1C [Example 2-37],herbicidal action AMARE,[3],100%
same,herbicidal action ECHCG,[4],90%
same,herbicidal action STEME,[8],90%
same,herbicidal action VERPE,[9],100%
same,herbicidal action ABUTH,[16],80
same,herbicidal action ALOMY,[17],80
same,herbicidal action AMARE,[11]; Dosage 80 g/ha,90
same,herbicidal action CYPES,[18],80
same,herbicidal action ECHCG,[12]; Dosage 80 g/ha,100
same,herbicidal action MATIN,[19],80
same,herbicidal action PHBPU,[13]; Dosage 80 g/ha,80
same,herbicidal action SETVI,[20],100
same,herbicidal action STEME,[14]; Dosage 80 g/ha,100
same,herbicidal action VERPE,[21],100
same,herbicidal action VIOTR,[15]; Dosage 80 g/ha,100
